Test results reported in patent US7544483B2, “Method for the production of protamine” (priority 2002, dated 2009).
Where a name gives a salt, the structure may show the parent alone.

How the values were obtained:
Type in all cases: cell-based
[1] = tested on: Micrococcus luteus DSM 348; experiment: Effect of biological buffers with or without protamine on the growth of Micrococcus luteus DSM 348; conditions: for μ (growth rate): buffer without protamine, pH of 8.0 (FIG. 4), starting inoculum 10^7 cells, mean of three replicates
Experimental: (§1) All bacterial strains are maintained as frozen stocks at −80° C. in TSB, Luria-Bertani broth.
(§2) Throughout the experiments strains are subcultured every 2 weeks on TSA (tryptic soy agar; 15 g l^−1 agar) or LBA (Luria-Bertani agar; 15 g l^−1 agar) depending upon the type of bacteria and experiment and kept at 4° C. The incubation temperature is 37° C. except for photo-heterotrophic bacteria (30° C.).
(§3) The growth curve is determined by measuring the optical density (OD), growth rate and doubling time. Additionally, the number of colony forming units is determined by counting bacterial spots.
(§4) Bacterial growth is monitored by recording the increase in optical density (OD) at 560 nm in a spectrophotometer (Ultrospec 1000, Pharmacia Biotech, England). Sterile medium is used as reference. […] At given times, 100 μl aliquots of the samples are removed and spread on corresponding agar plates. If necessary, the samples are diluted by factors between 10^2−10^8 to ensure good count ability. Colony forming unit determination (CFU/ml) is carried out in duplicate using a CCD camera module (Sony Corp., Japan) applying the BioProfil Software V 2000.01 (Vilber Lourmat, France).
(§5) A commercially available protamine from Salmon is obtained from Sigma Aldrich (Taufkirchen, Germany). A stock solution is prepared by dissolving protamine in distilled water. The solution is then sterilized with Rotabilo© filter units (0.22 μm; Carl Roth, Karlsruhe, Germany) and stored at −20° C. until use.
Determination of Bactericidal Effect of Biological Buffers With or Without Protamine on Gram-positive Bacteria
(§6) In all experiments the starting inoculum is 10^7 cells. The data shown are average means of three replicates.

Pseudomonas fluorescens = experiment: Protamine tolerance of Pseudomonas fluorescens with a special phenotype
Escherichia coli = experiment: Growth of Escherichia coli in the presence of protamine
Escherichia coli DH5α = experiment: Effect of biological buffers with or without protamine on the growth of Escherichia coli DH5α; conditions: buffer without protamine; starting inoculum 10^7 cells; mean of three replicates
Experimental: as §1, §2, §3, §4, §5
Determination of Bactericidal Effect of Biological Buffers With or Without Protamine on Gram-negative Bacteria
as §6

Compound | effect of the composition additionally comprising protamine ([1]; pH of 8.0, citrate + bicarbonate composition) | protamine concentrations tolerated (Pseudomonas fluorescens) | protamine concentration at which the organism does not grow (Escherichia coli) | td (doubling time) (Escherichia coli DH5α) [h] | μ (growth rate) (Escherichia coli DH5α) [h⁻¹] | μ (growth rate) [1] [h⁻¹] | concentration of protamine needed for bacterial death on further addition of lysozyme ([1]; pH of 8.0, citrate + bicarbonate composition with protamine, relative to the amount needed without lysozyme) [%]
protamine | bacterial death | more than 40 mg/ml | 1,5 mg/ml |  |  |  | 
O=C(O)CC(O)(CC(=O)O)C(=O)O [0.4M citrate] |  |  |  | 3.75 | 0.185 | 0 | 
lysozyme |  |  |  |  |  |  | 30
O=C([O-])O.[Na+] [0.1M NaHCO3, NaHCO3] |  |  |  | 3.01 | 0.230 | 0 | 
